US10596172B2 (Celgene CAR LLC, priority 2008, dated 2020)
Where two headings read alike, the source gives them in different places.

Legend:
BTK [1] = molecular target: T1, BTK (Homo sapiens (Human), UniProt Q06187); assay: Omnia assay for potency assessment against BTK; type: biochemical; conditions: [BTK]=5 nm; read-out: BTK Inhibition
Protocol: Omnia Assay Protocol for Potency Assessment Against BTK
The modified BTK-optimized reagent conditions for the above protocol are:
[BTK]=5 nm, [ATP]=40 mM, [Y5-Sox]=10 mM (ATP KMapp˜36 mM).

ITK = ITK (Homo sapiens (Human), UniProt Q08881); assay: Omnia assay for potency assessment against active forms of ITK kinase; type: biochemical; conditions: [ITK]=10 nM, [ATP]=25 μM, [Y6-Sox]=10 μM; read-out: ITK Inhibition
Protocol: [ITK]=10 nM, [ATP]=25 μM, [Y6-Sox]=10 μM (ATP KMapp=33 μM).

EGFR-WT = EGFR-WT (Homo sapiens (Human), UniProt P00533); assay: Omnia assay for potency assessment against EGFR (WT); type: biochemical; conditions: wild-type EGFR; read-out: EGFR Wild Type Inhibition
BTK [2] = molecular target: T1, BTK; assay: Washout experiment with Ramos cells; type: cell-based; conditions: 100 nM compound 1 hour, then washout
Protocol: Ramos cells were serum starved for one hour in RPMI media +1% glutamine at 37° C. After starvation, Ramos cells were treated with 100 nM compound diluted in serum free RPMI media for 1 hour. After compound treatment, the media was removed and cells were washed with compound-free media. Subsequently, Ramos cells were washed every 2 hours and resuspended in fresh compound-free media. Cells were collected at specified timepoints, treated with 1 ug anti-human IgM (Southern Biotech cat #2022-01) for 10 minutes on ice to induce BCR signaling and then washed in PBS. Ramos cells were then lysed in Cell Extraction Buffer (Invitrogen FNN0011) supplemented with Roche complete protease inhibitor tablets (Roche 11697498001) and phosphatase inhibitors (Roche 04 906 837 001) and 18 ug total protein lysate was loaded in each lane. Inhibition of BTK kinase activity was assayed by measuring its substrate (PLCγ2) phosphorylation by western blot with phospho-specific antibodies from Cell Signaling Technologies cat #3871. The results of this experiment with compounds I-2, I-4 and I-7 are depicted in FIGS. 1, 2 and 3.

[3] = test system: B cell lymphoma cell lines; assay: B cell lymphoma proliferation assay; type: cell-based
TEC kinase = TEC kinase (Homo sapiens (Human), UniProt P42680); assay: Mass spectrometry for TEC kinase (tryptic digest); type: binding; conditions: 3 hrs at 10x excess
Protocol: (§1) TEC kinase (45 pmols; Invitrogen) was incubated with (I-2) (450 pmols) for 3 hrs at 10× excess prior to tryptic digestion. Iodoacetamide was used as the alkylating agent after compound incubation. […] For tryptic digests a 5 ul aliquot (7.5 pmols) was diluted with 15 ul of 0.1% TFA prior to micro C18 Zip Tipping directly onto the MALDI target using alpha cyano-4-hydroxy cinnamic acid as the matrix (5 mg/ml in 0.1% TFA:Acetonitrile 50:50).
As depicted in FIG. 6, the expected peptide ([…]) to be modified was immediately evident after reaction with I-2 (MI mass of 359.17 Da) at MH+ of 1294.72. The peptide was also quite evident in the control sample as modified by Iodacetamide at MH+ of 992.56. […] There was no evidence of other modified peptides.
For tryptic digests the instrument was set in Reflectron mode with a pulsed extraction setting of 2200. Calibration was done using the Laser Biolabs Pep Mix standard ([…], 1296.69, 1672.92, 2093.09, 2465.20). For CID/PSD analysis the peptide was selected using cursors to set ion gate timing and fragmentation occurred at a laser power about 20% higher and He was used as the collision gas for CID. Calibration for fragments was done using the P14R fragmentation calibration for the Curved field Reflectron.
as §1, with “(I-4)” for “(I-2)”
As depicted in FIG. 7, the expected peptide ([…]) to be modified was immediately evident at MH+ of 1355.72. This is the mass to be expected when compound I-4, with an adduct mass of 420.21, is added to the peptide mass of 935.51. The peptide was also quite evident in the control sample as modified by Iodacetamide at MH^+ of 992.56. […] There was no evidence of other modified peptides. […]

JAK3 [4] = molecular target: T2, JAK3 (Homo sapiens (Human), UniProt P52333); assay: Omnia assay for potency assessment against the active form of JAK3; type: biochemical; conditions: read-out: JAK3 Inhibition
Erbb4 kinase domain = Erbb4 kinase domain (Homo sapiens (Human), UniProt Q15303); assay: Mass spectrometry for ERBB4; type: binding; conditions: 60 minutes at 10-fold excess of compound
Protocol: Erbb4 kinase domain (Upstate) was incubated with compound for 60 minutes at 10-fold excess of compound I-4 and I-11 to protein. 1 μl aliquots of the samples (total volume of 4.24 ul) were diluted with 10 μl of 0.1% TFA prior to micro C4 ZipTipping directly onto the MALDI target using Sinapinic acid as the desorption matrix (10 mg/ml in 0.1% TFA:Acetonitrile 50:50). For intact protein mass measurement the instrument was set in Linear mode using a pulsed extraction setting of 16,952 for the myoglobin standard used to calibrate the instrument (Shimadzu Axima TOF^2).
Intact ErbB4 protein occurs at MH+ of 35850 with corresponding sinapinic (matrix) adducts occurring about 200 Da higher. A stoichiometric incorporation of the test compound (I-4 and I-11) (Mw of 410 Da) produced a new mass peak which is approximately 410 Da higher (MH+ of 36260).

JAK3 [5] = molecular target: T2, JAK3; assay: Mass spectrometry for Janus-3 kinase (JAK3); type: binding; conditions: 3 hrs at 10x excess, tryptic digest
Protocol: JAK3 kinase (33 pmols; Invitrogen) was incubated with (I-7) (327 pmols) for 3 hrs at 10× excess prior to tryptic digestion. Iodoacetamide was used as the alkylating agent after compound incubation. For tryptic digests a 5 ul aliquot (5.5 pmols) was diluted with 15 ul of 0.1% TFA prior to micro C18 Zip Tipping directly onto the MALDI target using alpha cyano-4-hydroxy cinnamic acid as the matrix (5 mg/ml in 0.1% TFA:Acetonitrile 50:50).
As depicted in FIG. 11, the expected peptide ([…]) to be modified was immediately evident as the largest peak at MH+ of 1725.88. This is the mass to be expected when compound I-7, with an adduct mass of 345.16, is added to the peptide mass of 1380.70. […] There was also evidence for a number of other modified peptides, however, their signals were low.
To further verify the presence of the modified peptides with compound I-7, the peptides at MH+ of 1725.88 and 1118.55 were subjected to PSD (MS/MS) analysis. A correlational analysis with the homo sapien database identified the correct peptides as being modified by I-7.
For tryptic digests the instrument was set in Reflectron mode with a pulsed extraction setting of 2200. Calibration was done using the Laser Biolabs Pep Mix standard ([…], 1296.69, 1672.92, 2093.09, 2465.20). […]

BTK [6] = molecular target: T1, BTK; assay: BTK Ramos cellular assay (phosphorylation of BTK substrate PLCγ2); type: cell-based; conditions: Ramos cells, compound 1 hour, anti-human IgM stimulation, read-out: BTK Inhibition (BTK Ramos Cellular Inhibition Data)
Protocol: Ramos cells were grown in suspension in T225 flasks, spun down, resuspended in 50 ml serum-free media and incubated for 1 hour. […] Ramos cells were incubated with compound for 1 hour, washed again and resuspended in 100 ul serum-free media. Cells were then stimulated with 1 μg of goat F(ab′)2 Anti-Human IgM and incubated on ice for 10 minutes to activate B cell receptor signaling pathways. After 10 minutes, the cells were washed once with PBS and then lysed on ice with Invitrogen Cell Extraction buffer. 16 μg total protein from lysates were loaded on gel and blots were probed for phosphorylation of the BTK substrate PLCγ2.

[7] = Homo sapiens, DOHH-2, DOHH2 B cell lymphoma cell line, read-out: EC50 (μM) DOHH2

T2 sequence (P52333 whole entry, the tested form may be a part): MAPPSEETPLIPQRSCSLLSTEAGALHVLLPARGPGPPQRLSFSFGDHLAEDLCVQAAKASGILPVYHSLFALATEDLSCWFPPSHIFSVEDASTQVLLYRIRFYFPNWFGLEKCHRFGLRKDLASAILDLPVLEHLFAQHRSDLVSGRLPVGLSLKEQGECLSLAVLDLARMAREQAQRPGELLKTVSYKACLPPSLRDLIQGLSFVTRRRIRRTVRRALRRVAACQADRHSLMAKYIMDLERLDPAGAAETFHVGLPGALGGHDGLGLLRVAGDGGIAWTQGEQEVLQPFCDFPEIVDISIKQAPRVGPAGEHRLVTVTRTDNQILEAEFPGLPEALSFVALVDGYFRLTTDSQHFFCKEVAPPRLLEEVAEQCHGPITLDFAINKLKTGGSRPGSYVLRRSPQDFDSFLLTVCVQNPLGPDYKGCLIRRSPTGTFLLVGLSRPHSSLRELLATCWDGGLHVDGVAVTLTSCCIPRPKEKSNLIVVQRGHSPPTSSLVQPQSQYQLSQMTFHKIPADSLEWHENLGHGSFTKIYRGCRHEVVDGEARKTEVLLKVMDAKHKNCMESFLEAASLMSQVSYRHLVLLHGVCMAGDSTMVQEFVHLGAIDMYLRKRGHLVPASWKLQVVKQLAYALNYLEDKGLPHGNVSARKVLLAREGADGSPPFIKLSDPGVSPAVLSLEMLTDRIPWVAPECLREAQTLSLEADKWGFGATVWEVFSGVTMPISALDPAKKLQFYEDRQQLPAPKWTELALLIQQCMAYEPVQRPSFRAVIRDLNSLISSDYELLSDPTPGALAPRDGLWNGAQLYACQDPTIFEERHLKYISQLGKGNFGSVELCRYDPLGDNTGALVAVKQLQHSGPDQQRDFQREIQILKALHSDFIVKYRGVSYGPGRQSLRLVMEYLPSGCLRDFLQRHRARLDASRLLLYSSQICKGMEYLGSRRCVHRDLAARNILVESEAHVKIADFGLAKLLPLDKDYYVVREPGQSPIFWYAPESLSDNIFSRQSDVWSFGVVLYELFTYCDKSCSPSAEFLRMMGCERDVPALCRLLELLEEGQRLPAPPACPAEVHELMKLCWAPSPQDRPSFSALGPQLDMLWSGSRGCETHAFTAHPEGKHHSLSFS
Sequence of ITK (Q08881 whole entry): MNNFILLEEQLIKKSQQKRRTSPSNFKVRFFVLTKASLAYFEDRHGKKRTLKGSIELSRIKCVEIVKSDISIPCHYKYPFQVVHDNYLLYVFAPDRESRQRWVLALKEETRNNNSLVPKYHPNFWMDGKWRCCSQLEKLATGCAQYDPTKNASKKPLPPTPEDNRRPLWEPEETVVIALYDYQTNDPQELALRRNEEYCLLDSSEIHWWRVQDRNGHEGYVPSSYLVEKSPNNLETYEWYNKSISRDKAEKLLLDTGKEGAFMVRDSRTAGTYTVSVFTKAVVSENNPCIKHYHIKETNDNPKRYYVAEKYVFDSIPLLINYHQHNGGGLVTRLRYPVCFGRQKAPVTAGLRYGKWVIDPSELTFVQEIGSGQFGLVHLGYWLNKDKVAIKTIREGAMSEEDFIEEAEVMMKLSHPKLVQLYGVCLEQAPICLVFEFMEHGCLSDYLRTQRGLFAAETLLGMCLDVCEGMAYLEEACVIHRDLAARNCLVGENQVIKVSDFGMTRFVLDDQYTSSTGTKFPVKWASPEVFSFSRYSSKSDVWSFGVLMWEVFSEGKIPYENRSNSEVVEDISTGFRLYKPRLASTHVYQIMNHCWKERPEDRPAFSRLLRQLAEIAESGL
T1 sequence (Q06187 whole entry): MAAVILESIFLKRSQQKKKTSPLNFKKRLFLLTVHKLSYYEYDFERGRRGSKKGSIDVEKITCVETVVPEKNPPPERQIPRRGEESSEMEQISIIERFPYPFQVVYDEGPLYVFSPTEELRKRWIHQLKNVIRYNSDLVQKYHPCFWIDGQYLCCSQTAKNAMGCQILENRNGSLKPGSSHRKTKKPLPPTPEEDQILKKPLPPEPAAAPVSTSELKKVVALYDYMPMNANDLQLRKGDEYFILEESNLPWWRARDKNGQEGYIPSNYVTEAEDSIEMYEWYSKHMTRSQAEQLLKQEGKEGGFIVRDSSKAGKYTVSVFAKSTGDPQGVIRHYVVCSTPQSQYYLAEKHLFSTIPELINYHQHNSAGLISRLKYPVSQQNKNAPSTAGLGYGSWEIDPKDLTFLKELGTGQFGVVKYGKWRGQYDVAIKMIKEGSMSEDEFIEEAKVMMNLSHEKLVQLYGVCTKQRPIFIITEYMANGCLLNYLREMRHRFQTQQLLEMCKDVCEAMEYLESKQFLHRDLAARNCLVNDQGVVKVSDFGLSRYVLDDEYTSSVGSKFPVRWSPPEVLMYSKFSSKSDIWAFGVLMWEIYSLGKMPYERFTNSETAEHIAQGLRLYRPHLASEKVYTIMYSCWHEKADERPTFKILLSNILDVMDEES
Sequence of Erbb4 kinase domain (Q15303 718-985): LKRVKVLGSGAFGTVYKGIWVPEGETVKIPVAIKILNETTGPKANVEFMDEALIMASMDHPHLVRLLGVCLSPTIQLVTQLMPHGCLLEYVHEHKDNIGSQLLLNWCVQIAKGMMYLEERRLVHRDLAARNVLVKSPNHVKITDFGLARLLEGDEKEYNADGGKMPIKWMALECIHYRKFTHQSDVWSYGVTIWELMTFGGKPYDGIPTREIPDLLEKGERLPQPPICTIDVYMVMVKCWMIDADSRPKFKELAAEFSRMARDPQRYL
Sequence of TEC kinase (P42680 whole entry): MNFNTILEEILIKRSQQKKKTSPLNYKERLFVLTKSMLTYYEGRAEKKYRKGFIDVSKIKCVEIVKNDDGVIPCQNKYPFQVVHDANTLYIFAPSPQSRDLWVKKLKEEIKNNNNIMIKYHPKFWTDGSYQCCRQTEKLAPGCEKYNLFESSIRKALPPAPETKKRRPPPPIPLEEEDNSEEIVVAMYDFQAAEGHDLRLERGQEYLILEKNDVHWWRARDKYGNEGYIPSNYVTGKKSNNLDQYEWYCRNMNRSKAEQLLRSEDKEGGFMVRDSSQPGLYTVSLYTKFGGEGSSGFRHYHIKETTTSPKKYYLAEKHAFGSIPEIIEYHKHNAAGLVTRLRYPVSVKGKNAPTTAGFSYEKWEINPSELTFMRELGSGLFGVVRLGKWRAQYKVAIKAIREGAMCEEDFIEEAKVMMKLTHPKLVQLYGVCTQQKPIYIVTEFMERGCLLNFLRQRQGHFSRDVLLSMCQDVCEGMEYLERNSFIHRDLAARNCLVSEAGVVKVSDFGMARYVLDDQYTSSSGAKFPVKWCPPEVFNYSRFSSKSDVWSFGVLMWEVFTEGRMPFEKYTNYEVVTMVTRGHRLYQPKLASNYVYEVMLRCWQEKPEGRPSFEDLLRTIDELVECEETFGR

Molecule | IC50 (BTK [1]) [nM] | IC50 (ITK) [nM] | IC50 (EGFR-WT) [nM] | EC50 [3, 7] [µM] | IC50 (JAK3 [4]) [nM] | IC50 (BTK [6]) [nM] | further results
Cc1cnc(Nc2cccc(S(N)(=O)=O)c2)nc1Nc1ccc2c(c1)CCN(C(=O)CCl)C2 [Compound I-11, 3-(4-(2-(2-chloroacetyl)-1,2,3,4-tetrahydroisoquinolin-6-ylamino)-5-methylpyrimidin-2-ylamino)benzenesulfonamide] | – | – | – | – | < 10 | – | covalent modification of ErbB4 by mass spectrometry (Erbb4 kinase domain): covalent modification; covalent modification of JAK3 peptide LVMEYLPSGCLR (Cys909) by mass spectrometry (JAK3 [5]): measurable modification
C=CC(=O)Nc1cccc(Oc2nc(Nc3cccc(OC)c3)ncc2C(=O)NC2CC2)c1 [Compound I-177, 4-(3-acrylamidophenoxy)-2-(3-methoxyphenylamino)-pyrimidine-5-carboxylic Acid Cyclopropylamide] | < 10 | 10 to 100 | < 10 | – | – | 100 to 1000 | –
C=CC(=O)Nc1cccc(Oc2nc(Nc3cccc(OC)c3)ncc2C(N)=O)c1 [Compound I-178, 4-(3-acrylamidophenoxy)-2-(3-methoxyphenylamino)pyrimidine-5-carboxylic Acid Amide] | < 10 | 10 to 100 | < 10 | 1 to 10 | – | 10 to 100 | EC50 ([3]; DHL4 B cell lymphoma cell line, read-out: EC50 (μM) DHL4): > 10 µM; EC50 ([3]; Homo sapiens, WSUDLCL2, WSU-DLCL2 B cell lymphoma cell line, read-out: EC50 (μM) WSU-DLCL2): > 10 µM
C=CC(=O)N1CCC[C@@H](Oc2nc(Nc3ccc(OC)nc3)ncc2F)C1 [Compound I-180, (R)-1-(3-(5-fluoro-2-(6-methoxypyridin-3-ylamino)pyrimidin-4-yloxy)piperidin-1-yl)prop-2-en-1-one] | < 10 | 100 to 1000 | 100 to 1000 | – | – | 100 to 1000 | –

Continued, in another order:

IC50 (BTK [1]) [nM] | IC50 (ITK) [nM] | IC50 (EGFR-WT) [nM] | EC50 [3, 7] [µM] | IC50 (JAK3 [4]) [nM] | IC50 (BTK [6]) [nM] | Molecule | further results
< 10 | > 10000 | < 10 | – | – | – | 4-(3-acrylamidophenoxy)-2-(3-methoxyphenylamino)-pyrimidine-5-carboxylic acid phenylamide [Compound I-200] | –
– | – | – | 0.1 to 1 | < 10 | – | C=CC(=O)Nc1cccc(Nc2ncc(C)c(Nc3cccc(C)c3)n2)c1 [Compound I-2, N-(3-(5-methyl-4-(m-tolylamino)pyrimidin-2-ylamino)phenyl)acrylamide] | BTK Inhibition Type (BTK [2]): irreversible; covalent modification of TEC kinase peptide GCLLNFLR (Cys449) by mass spectrometry (TEC kinase): reaction was complete
